Results: US20250230193A1, “CYCLIC COMPOUND HAVING SELECTIVE KRAS INHIBITORY EFFECT ON HRAS AND NRAS” (CHUGAI SEIYAKU KABUSHIKI KAISHA, priority 2022, published 2025)
Where a SMILES comes first, the peptide text is derived from it. Bridges are numbered along the chain shown (N, C = ends). [ ]: non-standard residue; d: D form. hPhe(3-Cl-4-CF3) = N[C@@H](CCc1ccc(C(F)(F)F)c(Cl)c1)C(=O)O; NPrPhe(4-CF3) = CCCN[C@@H](Cc1ccc(C(F)(F)F)cc1)C(=O)O; NMeGly(cPent) = CN[C@H](C(=O)O)C1CCCC1; Pro(4,4-F2) = O=C(O)[C@@H]1CC(F)(F)CN1; Hyp = O=C(O)[C@@H]1C[C@@H](O)CN1; NMeL = CN[C@@H](CC(C)C)C(=O)O; Ac5c = NC1(C(=O)O)CCCC1; Ac4c = NC1(C(=O)O)CCC1; NEtG = CCNCC(=O)O; Sar = CNCC(=O)O

How the values were obtained:
[1] = target: GDP-bound NRAS wild-type protein (Homo sapiens, UniProt P01111); assay: Binding to NRAS by surface plasmon resonance (SPR), Single Cycle Kinetics; conditions: KD ratio NRAS/KRAS, SPR
[2] = target: GDP-bound HRAS wild-type protein (Homo sapiens, UniProt P01112); assay: Binding to HRAS by surface plasmon resonance (SPR), Single Cycle Kinetics; conditions: KD ratio HRAS/KRAS, SPR
Sequence of GDP-bound HRAS wild-type protein (P01112 whole entry): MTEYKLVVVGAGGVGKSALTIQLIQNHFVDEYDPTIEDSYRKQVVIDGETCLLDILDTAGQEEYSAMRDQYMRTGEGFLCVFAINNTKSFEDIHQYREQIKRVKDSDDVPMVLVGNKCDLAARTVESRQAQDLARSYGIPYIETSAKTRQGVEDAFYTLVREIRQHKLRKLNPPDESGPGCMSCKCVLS

Sequence of GDP-bound NRAS wild-type protein (P01111 whole entry): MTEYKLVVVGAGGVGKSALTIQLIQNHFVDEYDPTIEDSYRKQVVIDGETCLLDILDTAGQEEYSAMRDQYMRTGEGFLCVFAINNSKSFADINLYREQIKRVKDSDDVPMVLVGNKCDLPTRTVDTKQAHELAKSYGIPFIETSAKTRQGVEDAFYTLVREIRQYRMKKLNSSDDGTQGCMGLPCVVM

Compound	NRAS/KRAS (ratio of KD for GDP-bound NRAS wild-type to KD for KRAS) [1]	HRAS/KRAS (ratio of KD for GDP-bound HRAS wild-type to KD for KRAS) [2]
CCCN1C(=O)CN(C)C(=O)CN(C)C(=O)[C@H]([C@@H](C)CC)NC(=O)[C@H](CC(C)C)N(C)C(=O)C[C@@H](C(=O)N(C)C)NC(=O)[C@H](C2CCCC2)N(C)C(=O)C2(CCC2)NC(=O)[C@@H]2C[C@@H](OCC)CN2C(=O)[C@H](CCc2ccc(C(F)(F)F)c(Cl)c2)NC(=O)CN(C)C(=O)[C@@H]1Cc1ccc(C(F)(F)F)cc1 [PP0360] ([NMeL]I[Sar][Sar][NPrPhe(4-CF3)][Sar][hPhe(3-Cl-4-CF3)][Hyp](Et)[Ac4c][NMeGly(cPent)]D-NMe2; lactam N-11)	B (a compound having 3 or more and less than 10 is denoted as B)	C (A compound having a KD ratio of 0.1 or more and less than 3 is denoted as C)
CCCN1C(=O)CN(C)C(=O)CNC(=O)[C@H]([C@@H](C)CC)NC(=O)[C@H](CC(C)C)N(C)C(=O)C[C@@H](C(=O)N(C)C)NC(=O)[C@H](C2CCCC2)N(C)C(=O)C2(CCCC2)NC(=O)[C@@H]2CCCN2C(=O)[C@H](CCc2ccc(C(F)(F)F)c(Cl)c2)NC(=O)CN(C)C(=O)[C@@H]1Cc1ccc(C(F)(F)F)cc1 [PP0361] ([NMeL]IG[Sar][NPrPhe(4-CF3)][Sar][hPhe(3-Cl-4-CF3)]P[Ac5c][NMeGly(cPent)]D-NMe2; lactam N-11)	B (a compound having 3 or more and less than 10 is denoted as B)	C (A compound having a KD ratio of 0.1 or more and less than 3 is denoted as C)
CCCN1C(=O)CN(C)C(=O)CNC(=O)[C@H]([C@@H](C)CC)NC(=O)[C@H](CC(C)C)N(C)C(=O)C[C@@H](C(=O)N(C)C)NC(=O)[C@H](C2CCCC2)N(C)C(=O)C2(CCC2)NC(=O)[C@@H]2CCCN2C(=O)[C@H](CCc2ccc(C(F)(F)F)c(Cl)c2)NC(=O)CN(C)C(=O)[C@@H]1Cc1ccc(C(F)(F)F)cc1 [PP0362] ([NMeL]IG[Sar][NPrPhe(4-CF3)][Sar][hPhe(3-Cl-4-CF3)]P[Ac4c][NMeGly(cPent)]D-NMe2; lactam N-11)	B (a compound having 3 or more and less than 10 is denoted as B)	B (a compound having 3 or more and less than 10 is denoted as B)
CCCN1C(=O)CN(C)C(=O)CNC(=O)[C@H]([C@@H](C)CC)NC(=O)[C@H](CC(C)C)N(C)C(=O)C[C@@H](C(=O)N(C)C)NC(=O)[C@H](C2CCCC2)N(C)C(=O)C2(CCCC2)NC(=O)[C@@H]2CC(F)(F)CN2C(=O)[C@H](CCc2ccc(C(F)(F)F)c(Cl)c2)NC(=O)CN(C)C(=O)[C@@H]1Cc1ccc(C(F)(F)F)cc1 [PP0363] ([NMeL]IG[Sar][NPrPhe(4-CF3)][Sar][hPhe(3-Cl-4-CF3)][Pro(4,4-F2)][Ac5c][NMeGly(cPent)]D-NMe2; lactam N-11)	B (a compound having 3 or more and less than 10 is denoted as B)	C (A compound having a KD ratio of 0.1 or more and less than 3 is denoted as C)
CCCN1C(=O)CN(C)C(=O)CNC(=O)[C@H]([C@@H](C)CC)NC(=O)[C@H](CC(C)C)N(C)C(=O)C[C@@H](C(=O)N(C)C)NC(=O)[C@H](C2CCCC2)N(C)C(=O)C2(CCC2)NC(=O)[C@@H]2CC(F)(F)CN2C(=O)[C@H](CCc2ccc(C(F)(F)F)c(Cl)c2)NC(=O)CN(C)C(=O)[C@@H]1Cc1ccc(C(F)(F)F)cc1 [PP0364] ([NMeL]IG[Sar][NPrPhe(4-CF3)][Sar][hPhe(3-Cl-4-CF3)][Pro(4,4-F2)][Ac4c][NMeGly(cPent)]D-NMe2; lactam N-11)	B (a compound having 3 or more and less than 10 is denoted as B)	B (a compound having 3 or more and less than 10 is denoted as B)
CCCN1C(=O)CN(C)C(=O)CNC(=O)[C@H]([C@@H](C)CC)NC(=O)[C@H](CC(C)C)N(C)C(=O)C[C@@H](C(=O)N(C)C)NC(=O)[C@H](C2CCCC2)N(C)C(=O)C2(CCCC2)NC(=O)[C@@H]2C[C@@H](OCC)CN2C(=O)[C@H](CCc2ccc(C(F)(F)F)c(Cl)c2)NC(=O)CN(C)C(=O)[C@@H]1Cc1ccc(C(F)(F)F)cc1 [PP0365] ([NMeL]IG[Sar][NPrPhe(4-CF3)][Sar][hPhe(3-Cl-4-CF3)][Hyp](Et)[Ac5c][NMeGly(cPent)]D-NMe2; lactam N-11)	B (a compound having 3 or more and less than 10 is denoted as B)	B (a compound having 3 or more and less than 10 is denoted as B)
CCCN1C(=O)CN(C)C(=O)CNC(=O)[C@H]([C@@H](C)CC)NC(=O)[C@H](CC(C)C)N(C)C(=O)C[C@@H](C(=O)N(C)C)NC(=O)[C@H](C2CCCC2)N(C)C(=O)C2(CCC2)NC(=O)[C@@H]2C[C@@H](OCC)CN2C(=O)[C@H](CCc2ccc(C(F)(F)F)c(Cl)c2)NC(=O)CN(C)C(=O)[C@@H]1Cc1ccc(C(F)(F)F)cc1 [PP0366] ([NMeL]IG[Sar][NPrPhe(4-CF3)][Sar][hPhe(3-Cl-4-CF3)][Hyp](Et)[Ac4c][NMeGly(cPent)]D-NMe2; lactam N-11)	B (a compound having 3 or more and less than 10 is denoted as B)	B (a compound having 3 or more and less than 10 is denoted as B)
CCCN1C(=O)CN(C)C(=O)CN(CC)C(=O)[C@H]([C@@H](C)CC)NC(=O)[C@H](CC(C)C)N(C)C(=O)C[C@@H](C(=O)N(C)C)NC(=O)[C@H](C2CCCC2)N(C)C(=O)C2(CCCC2)NC(=O)[C@@H]2CCCN2C(=O)[C@H](CCc2ccc(C(F)(F)F)c(Cl)c2)NC(=O)CN(C)C(=O)[C@@H]1Cc1ccc(C(F)(F)F)cc1 [PP0367] ([NMeL]I[NEtG][Sar][NPrPhe(4-CF3)][Sar][hPhe(3-Cl-4-CF3)]P[Ac5c][NMeGly(cPent)]D-NMe2; lactam N-11)	B (a compound having 3 or more and less than 10 is denoted as B)	B (a compound having 3 or more and less than 10 is denoted as B)
CCCN1C(=O)CN(C)C(=O)CN(CC)C(=O)[C@H]([C@@H](C)CC)NC(=O)[C@H](CC(C)C)N(C)C(=O)C[C@@H](C(=O)N(C)C)NC(=O)[C@H](C2CCCC2)N(C)C(=O)C2(CCC2)NC(=O)[C@@H]2CCCN2C(=O)[C@H](CCc2ccc(C(F)(F)F)c(Cl)c2)NC(=O)CN(C)C(=O)[C@@H]1Cc1ccc(C(F)(F)F)cc1 [PP0368] ([NMeL]I[NEtG][Sar][NPrPhe(4-CF3)][Sar][hPhe(3-Cl-4-CF3)]P[Ac4c][NMeGly(cPent)]D-NMe2; lactam N-11)	B (a compound having 3 or more and less than 10 is denoted as B)	B (a compound having 3 or more and less than 10 is denoted as B)
CCCN1C(=O)CN(C)C(=O)CN(CC)C(=O)[C@H]([C@@H](C)CC)NC(=O)[C@H](CC(C)C)N(C)C(=O)C[C@@H](C(=O)N(C)C)NC(=O)[C@H](C2CCCC2)N(C)C(=O)C2(CCCC2)NC(=O)[C@@H]2CC(F)(F)CN2C(=O)[C@H](CCc2ccc(C(F)(F)F)c(Cl)c2)NC(=O)CN(C)C(=O)[C@@H]1Cc1ccc(C(F)(F)F)cc1 [PP0369] ([NMeL]I[NEtG][Sar][NPrPhe(4-CF3)][Sar][hPhe(3-Cl-4-CF3)][Pro(4,4-F2)][Ac5c][NMeGly(cPent)]D-NMe2; lactam N-11)	B (a compound having 3 or more and less than 10 is denoted as B)	C (A compound having a KD ratio of 0.1 or more and less than 3 is denoted as C)
CCCN1C(=O)CN(C)C(=O)CN(CC)C(=O)[C@H]([C@@H](C)CC)NC(=O)[C@H](CC(C)C)N(C)C(=O)C[C@@H](C(=O)N(C)C)NC(=O)[C@H](C2CCCC2)N(C)C(=O)C2(CCC2)NC(=O)[C@@H]2CC(F)(F)CN2C(=O)[C@H](CCc2ccc(C(F)(F)F)c(Cl)c2)NC(=O)CN(C)C(=O)[C@@H]1Cc1ccc(C(F)(F)F)cc1 [PP0370] ([NMeL]I[NEtG][Sar][NPrPhe(4-CF3)][Sar][hPhe(3-Cl-4-CF3)][Pro(4,4-F2)][Ac4c][NMeGly(cPent)]D-NMe2; lactam N-11)	B (a compound having 3 or more and less than 10 is denoted as B)	C (A compound having a KD ratio of 0.1 or more and less than 3 is denoted as C)
CCCN1C(=O)CN(C)C(=O)CN(CC)C(=O)[C@H]([C@@H](C)CC)NC(=O)[C@H](CC(C)C)N(C)C(=O)C[C@@H](C(=O)N(C)C)NC(=O)[C@H](C2CCCC2)N(C)C(=O)C2(CCCC2)NC(=O)[C@@H]2C[C@@H](OCC)CN2C(=O)[C@H](CCc2ccc(C(F)(F)F)c(Cl)c2)NC(=O)CN(C)C(=O)[C@@H]1Cc1ccc(C(F)(F)F)cc1 [PP0371] ([NMeL]I[NEtG][Sar][NPrPhe(4-CF3)][Sar][hPhe(3-Cl-4-CF3)][Hyp](Et)[Ac5c][NMeGly(cPent)]D-NMe2; lactam N-11)	B (a compound having 3 or more and less than 10 is denoted as B)	C (A compound having a KD ratio of 0.1 or more and less than 3 is denoted as C)
CCCN1C(=O)CN(C)C(=O)CN(CC)C(=O)[C@H]([C@@H](C)CC)NC(=O)[C@H](CC(C)C)N(C)C(=O)C[C@@H](C(=O)N(C)C)NC(=O)[C@H](C2CCCC2)N(C)C(=O)C2(CCC2)NC(=O)[C@@H]2C[C@@H](OCC)CN2C(=O)[C@H](CCc2ccc(C(F)(F)F)c(Cl)c2)NC(=O)CN(C)C(=O)[C@@H]1Cc1ccc(C(F)(F)F)cc1 [PP0372] ([NMeL]I[NEtG][Sar][NPrPhe(4-CF3)][Sar][hPhe(3-Cl-4-CF3)][Hyp](Et)[Ac4c][NMeGly(cPent)]D-NMe2; lactam N-11)	B (a compound having 3 or more and less than 10 is denoted as B)	B (a compound having 3 or more and less than 10 is denoted as B)
